One series deals with hERG (Homo sapiens, UniProt Q12809). In words: hERG Q-patch. In kind it is cell-based. To be noted: read-out: hERG Q-patch (pIC50) (converted). From the text:
The human ether-a-go-go related gene (hERG) encodes the inward rectifying voltage gated potassium channel in the heart (IKr) that is involved in cardiac repolarisation. Inhibition of the hERG current causes QT interval prolongation resulting in potentially fatal ventricular tachyarrhythmia called Torsade de Pointes. A number of drugs have been withdrawn from late stage clinical trials due to these cardiotoxic effects, therefore it is important to identify inhibitors early in drug discovery (W. Haverkamp et al. Eur Heart J., 2000, 21(15), 1216). A low potency in this screen is advantageous for compound development.
(In general: Block of hERG is tested as a sign of cardiac risk.)

In another series the target is ανβ6 (Homo sapiens, UniProt P06756+P18564). Nature of the series: Cell adhesion assay, αvβ6 integrin. The series is classed as cell-based. The method, then: The assays were performed as described in the literature (P. A. Procopiou, N. A. Anderson, J. Barrett, T. N. Barrett, M. H. J. Crawford, B. J. Fallon, A. P. Hancock, J. Le, S. Lemma, R. P. Marshall, J. Morrell, J. M. Pritchard, J. E. Rowedder, P. Saklatvala, R. J. Slack, S. L. Sollis, C. J. Suckling, L. R. Thorp, G. Vitulli, et al., J. Med. Chem. 2018, 61, 8417-8443; S. B. Ludbrook, S. T. Barry, C. J. Delves, C. M. T. Horgan, Biochem. J. 2003, 369, 311-318).
ανβ6, sequence (P06756 31-889 limits assumed): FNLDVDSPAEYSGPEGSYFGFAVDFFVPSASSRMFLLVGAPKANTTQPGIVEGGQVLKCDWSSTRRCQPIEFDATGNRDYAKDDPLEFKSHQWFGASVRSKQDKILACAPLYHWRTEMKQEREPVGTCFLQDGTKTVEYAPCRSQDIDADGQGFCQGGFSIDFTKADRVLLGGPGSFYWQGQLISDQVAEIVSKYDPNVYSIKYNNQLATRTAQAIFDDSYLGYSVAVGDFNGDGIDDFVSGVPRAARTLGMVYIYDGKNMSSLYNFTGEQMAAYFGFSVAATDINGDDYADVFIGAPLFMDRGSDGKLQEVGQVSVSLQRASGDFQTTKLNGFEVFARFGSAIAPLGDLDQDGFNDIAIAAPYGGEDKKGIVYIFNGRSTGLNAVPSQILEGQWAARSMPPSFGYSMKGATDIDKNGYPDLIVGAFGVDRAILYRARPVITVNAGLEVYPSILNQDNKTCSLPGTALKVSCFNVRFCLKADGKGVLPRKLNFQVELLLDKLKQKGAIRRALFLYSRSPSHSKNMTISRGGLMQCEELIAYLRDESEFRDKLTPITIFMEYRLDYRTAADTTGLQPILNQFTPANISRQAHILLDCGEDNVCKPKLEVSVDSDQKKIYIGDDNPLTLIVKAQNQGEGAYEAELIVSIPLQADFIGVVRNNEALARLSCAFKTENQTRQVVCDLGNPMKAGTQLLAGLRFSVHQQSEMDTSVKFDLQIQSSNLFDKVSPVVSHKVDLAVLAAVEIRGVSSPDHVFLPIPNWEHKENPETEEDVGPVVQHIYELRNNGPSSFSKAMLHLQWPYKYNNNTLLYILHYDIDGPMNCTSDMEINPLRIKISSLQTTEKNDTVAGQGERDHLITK
ανβ6, sequence (P06756 891-1048 limits assumed): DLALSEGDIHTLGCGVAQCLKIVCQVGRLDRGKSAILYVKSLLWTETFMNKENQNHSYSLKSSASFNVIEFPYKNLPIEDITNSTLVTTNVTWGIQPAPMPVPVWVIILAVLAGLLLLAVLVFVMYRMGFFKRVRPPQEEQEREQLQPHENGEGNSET
ανβ6, sequence (P18564 22-788): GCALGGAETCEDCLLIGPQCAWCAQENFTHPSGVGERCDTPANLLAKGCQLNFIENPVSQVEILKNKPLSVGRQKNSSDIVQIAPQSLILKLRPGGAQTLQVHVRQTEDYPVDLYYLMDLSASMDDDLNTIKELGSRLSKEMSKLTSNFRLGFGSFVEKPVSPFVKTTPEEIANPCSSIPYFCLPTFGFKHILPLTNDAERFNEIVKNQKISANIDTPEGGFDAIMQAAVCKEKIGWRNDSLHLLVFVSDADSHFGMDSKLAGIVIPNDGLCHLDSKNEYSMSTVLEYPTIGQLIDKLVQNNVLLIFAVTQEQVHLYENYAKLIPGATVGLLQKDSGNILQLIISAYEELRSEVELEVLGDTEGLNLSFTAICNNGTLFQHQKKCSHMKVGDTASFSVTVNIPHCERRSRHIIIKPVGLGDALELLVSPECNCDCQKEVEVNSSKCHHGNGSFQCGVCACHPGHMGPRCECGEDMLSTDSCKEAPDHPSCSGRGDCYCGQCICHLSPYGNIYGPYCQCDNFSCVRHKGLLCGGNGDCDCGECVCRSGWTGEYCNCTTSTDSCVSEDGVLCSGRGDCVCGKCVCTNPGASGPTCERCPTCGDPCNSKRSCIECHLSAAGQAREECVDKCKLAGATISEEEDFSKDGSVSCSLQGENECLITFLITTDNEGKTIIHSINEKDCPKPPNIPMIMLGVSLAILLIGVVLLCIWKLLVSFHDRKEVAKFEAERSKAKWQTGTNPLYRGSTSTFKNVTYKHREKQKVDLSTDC

A short description of series [1]: ChromlogD (lipophilicity). In kind it is physicochemical. The note with it: pH 7.4. From the text:
ChromlogD is a measure of lipophilicity of a compound (R. J. Young et al. Drug Discovery Today 2011, […]). Lipophilicity is a key physicochemical property that plays a crucial role in determining ADMET (absorption, distribution, metabolism, excretion, and toxicity) properties and the overall suitability of drug candidates.

Setting [2] is: cell adhesion data, read-out: ανβ6 IC50.

Like-named read-outs stand apart in the source and are kept apart here.

hERG, sequence (Q12809 whole entry): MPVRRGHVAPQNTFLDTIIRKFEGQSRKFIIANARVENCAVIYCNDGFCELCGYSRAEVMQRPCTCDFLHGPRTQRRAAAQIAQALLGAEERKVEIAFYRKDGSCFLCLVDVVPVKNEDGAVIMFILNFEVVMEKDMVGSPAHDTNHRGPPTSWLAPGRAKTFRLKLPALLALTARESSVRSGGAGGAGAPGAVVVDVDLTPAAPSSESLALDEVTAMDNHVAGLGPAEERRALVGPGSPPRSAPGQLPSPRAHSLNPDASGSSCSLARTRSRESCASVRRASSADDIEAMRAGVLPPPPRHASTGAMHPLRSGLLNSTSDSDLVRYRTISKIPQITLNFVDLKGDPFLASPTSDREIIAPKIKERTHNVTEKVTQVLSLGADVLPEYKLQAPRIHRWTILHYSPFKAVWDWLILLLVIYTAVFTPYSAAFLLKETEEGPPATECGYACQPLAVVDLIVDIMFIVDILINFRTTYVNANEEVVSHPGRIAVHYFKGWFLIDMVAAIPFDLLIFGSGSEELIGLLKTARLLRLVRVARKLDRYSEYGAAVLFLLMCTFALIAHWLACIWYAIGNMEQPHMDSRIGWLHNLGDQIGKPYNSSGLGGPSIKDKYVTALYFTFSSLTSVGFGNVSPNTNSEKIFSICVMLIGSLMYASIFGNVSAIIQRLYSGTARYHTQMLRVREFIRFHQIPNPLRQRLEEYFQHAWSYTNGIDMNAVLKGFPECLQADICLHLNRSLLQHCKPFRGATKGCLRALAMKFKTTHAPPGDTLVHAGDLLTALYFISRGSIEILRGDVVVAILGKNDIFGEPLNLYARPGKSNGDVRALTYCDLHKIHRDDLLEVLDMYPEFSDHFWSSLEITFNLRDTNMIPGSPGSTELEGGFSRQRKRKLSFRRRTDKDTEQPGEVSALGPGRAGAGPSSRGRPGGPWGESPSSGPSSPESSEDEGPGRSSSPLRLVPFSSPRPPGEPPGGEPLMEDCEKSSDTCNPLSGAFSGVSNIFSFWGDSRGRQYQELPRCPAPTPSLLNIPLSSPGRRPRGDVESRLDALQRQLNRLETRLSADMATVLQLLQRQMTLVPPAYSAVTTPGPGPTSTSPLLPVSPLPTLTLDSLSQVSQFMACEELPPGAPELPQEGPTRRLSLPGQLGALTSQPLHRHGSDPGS

Regarding `Cc1cccc(S(=O)(=O)N2CC(C(=O)N[C@@H](CNC(=O)CCCCc3ccc4c(n3)NCCC4)C(=O)O)C2)c1` [Example 6A], the IC50 at hERG is above 31.6 µM; on ανβ6 (setting [2]), below 0.25 µM; on ανβ6 (comparison table, Example 6A, read-out: αvβ6 (pIC50) (converted)), 0.00501 µM. In addition, in series [1], the chromatographic logD (usually a lipophilicity value derived from retention on a column) came out at 2.27.
For `CCC1(C(=O)NC(CNC(=O)CCCCc2ccc3c(n2)NCCC3)C(=O)O)CN(S(=O)(=O)c2cccc(C)c2)C1` (racemic) [Example 16, 2-(3-ethyl-1-(3-methylbenzenesulfonyl)azetidine-3-carboxamido)-3-(5-(5,6,7,8-tetrahydro-1,8-naphthyridin-2-yl)pentanamido)propanoic acid], the IC50 on ανβ6 (setting [2]) was below 0.25 µM.
The same measure, in the same setting: in the case of `O=C(CCCCc1ccc2c(n1)NCCC2)NCC(NC(=O)C1CN(S(=O)(=O)c2ccc(Cl)s2)C1)C(=O)O` (racemic) [Example 20, 2-(1-((5-chlorothiophen-2-yl)sulfonyl)azetidine-3-carboxamido)-3-(5-(5,6,7,8-tetrahydro-1,8-naphthyridin-2-yl)pentanamido)propanoic acid] it was below 0.25 µM; in that of `CCc1cccc(S(=O)(=O)N2CC(C(=O)N[C@@H](CNC(=O)CCCCc3ccc4c(n3)NCCC4)C(=O)O)C2)c1` [Example 26, (S)-2-(1-(3-Ethylbenzenesulfonyl)azetidine-3-carboxamido)-3-(5-(5,6,7,8-tetrahydro-1,8-naphthyridin-2-yl)pentanamido)propanoic acid], below 0.25 µM; in that of `COc1cccc(S(=O)(=O)N2CC(C(=O)N[C@@H](CNC(=O)CCCCc3ccc4c(n3)NCCC4)C(=O)O)C2)c1` [Example 28, (S)-2-(1-(3-Methoxybenzenesulfonyl)azetidine-3-carboxamido)-3-(5-(5,6,7,8-tetrahydro-1,8-naphthyridin-2-yl)pentanamido)propanoic acid], below 0.25 µM.
The same measure, in the same setting: the result for `O=C(CCCCc1ccc2c(n1)NCCC2)NC[C@H](NC(=O)C1CN(S(=O)(=O)c2cccc(Cl)c2)C1)C(=O)O` [Example 27, (S)-2-(1-(3-Chlorobenzenesulfonyl)azetidine-3-carboxamido)-3-(5-(5,6,7,8-tetrahydro-1,8-naphthyridin-2-yl)pentanamido)propanoic acid] reads below 0.25 µM; that for `CN(CCCCc1ccc2c(n1)NCCC2)CC[C@H](NC(=O)C1CN(S(=O)(=O)c2ccccc2)C1)C(=O)O` [Example 38, (S)-4-(Methyl(4-(5,6,7,8-tetrahydro-1,8-naphthyridin-2-yl)butyl)amino)-2-(1-(phenylsulfonyl)azetidine-3-carboxamido)butanoic acid], below 0.25 µM; that for `CS(=O)(=O)c1cccc(S(=O)(=O)N2CC(C(=O)NC(CNC(=O)CCCCc3ccc4c(n3)NCCC4)C(=O)O)C2)c1` (racemic) [Example 12], below 0.25 µM.
Regarding `O=C(CCCCc1ccc2c(n1)NCCC2)NCC(NC(=O)C1CN(S(=O)(=O)c2cccc(C(F)(F)F)c2)C1)C(=O)O` (racemic) [Example 7, 3-(5-(5,6,7,8-tetrahydro-1,8-naphthyridin-2-yl)pentanamido)-2-(1-(3-(trifluoromethyl)benzenesulfonyl)azetidine-3-carboxamido)propanoic acid], the IC50 at ανβ6 (setting [2]) is below 0.25 µM.
The same measure, in the same setting: the result for `Cc1cc(C)cc(S(=O)(=O)N2CC(C(=O)N[C@@H](CNC(=O)CCCCc3ccc4c(n3)NCCC4)C(=O)O)C2)c1` [Example 24, (S)-2-(1-(3,5-Dimethylbenzenesulfonyl)azetidine-3-carboxamido)-3-(5-(5,6,7,8-tetrahydro-1,8-naphthyridin-2-yl)pentanamido)propanoic acid] reads below 0.25 µM; that for `Cc1cc(Cl)cc(S(=O)(=O)N2CC(C(=O)N[C@@H](CNC(=O)CCCCc3ccc4c(n3)NCCC4)C(=O)O)C2)c1` [Example 25, (S)-2-(1-(3-Chloro-5-methylbenzenesulfonyl)azetidine-3-carboxamido)-3-(5-(5,6,7,8-tetrahydro-1,8-naphthyridin-2-yl)pentanamido)propanoic acid], below 0.25 µM; that for `Cc1cccc(S(=O)(=O)N2CC(C(=O)N[C@@H](CC(=O)NCCCCc3ccc4c(n3)NCCC4)C(=O)O)C2)c1` [Example 36, N4-(4-(5,6,7,8-Tetrahydro-1,8-naphthyridin-2-yl)butyl)-N2-(1-(3-methylbenzenesulfonyl)azetidine-3-carbonyl)-L-asparagine], below 0.25 µM.
Still for that read-out and setting: in the case of `Cc1ccc(S(=O)(=O)N2CC(C(=O)NC(CNC(=O)CCCCc3ccc4c(n3)NCCC4)C(=O)O)C2)cc1` (racemic) [Example 1, 3-(5-(5,6,7,8-tetrahydro-1,8-naphthyridin-2-yl)pentanamido)-2-(1-(4-methylbenzenesulfonyl)azetidine-3-carboxamido)propanoic acid] it was below 0.25 µM.
Still for that read-out and setting: the result for `Cn1cnc(S(=O)(=O)N2CC(C(=O)NC(CNC(=O)CCCCc3ccc4c(n3)NCCC4)C(=O)O)C2)c1` (racemic) [Example 18, 2-(1-((1-methyl-1H-imidazol-4-yl)sulfonyl)azetidine-3-carboxamido)-3-(5-(5,6,7,8-tetrahydro-1,8-naphthyridin-2-yl)pentanamido) propanoic acid] reads below 0.25 µM.

For the origin of these results see patent publication US12630548B2, “Azetidine derivatives for the treatment of integrin associated diseases” (The University of Nottingham, priority 2020, dated 2026).
